From patent publication US11331327B2, “Antibacterial use of halogenated salicylanilides” (UNION therapeutics A/S, priority 2014, dated 2022)

Test system: S. aureus clinical isolates and S. aureus ATCC 29213
Assay: MIC assay according to CLSI criteria, Example 2, S. aureus strains
Type: cell-based, Staphylococcus aureus
Conditions: Staphylococcus aureus
Summary of the method: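 Wells received roughly 5×10^5 S. aureus cells taken in exponential growth, in cation-adjusted MH broth. Plates held aerobically at 37° C for 18 hours.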

Measured: MIC

CN[C@H](CC(C)C)C(=O)N[C@H]1C(=O)N[C@@H](CC(N)=O)C(=O)N[C@H]2C(=O)N[C@H]3C(=O)N[C@H](C(=O)N[C@H](C(=O)O)c4cc(O)cc(O)c4-c4cc3ccc4O)[C@H](O)c3ccc(c(Cl)c3)Oc3cc2cc(c3O[C@@H]2O[C@H](CO)[C@@H](O)[C@H](O)[C@H]2O[C@H]2C[C@](C)(N)[C@H](O)[C@H](C)O2)Oc2ccc(cc2Cl)[C@H]1O [Vancomycin]
2 µg/mL: ATCC29213, strain 115015T | ATCC29213, strain 115263C | ATCC29213, strain 115584D | ATCC29213, strain 115628T | ATCC29213, strain 115690C | ATCC29213, strain E5-1030469 | ATCC29213, strain E5-1041977 | ATCC29213, strain E5-1046085 | ATCC29213, strain E5-1046723 | ATCC29213, strain E5-1048204 | ATCC29213, strain E5-1048670 | ATCC29213, strain K115498 | ATCC29213, strain K115688 | ATCC29213, strain K115689 | ATCC29213, strain R000019 | ATCC 29213 / MRSA, strain MRSA 02 | ATCC 29213 / MRSA, strain MRSA 04 | ATCC 29213 / MRSA, strain MRSA 06 | ATCC 29213 / MRSA, strain MRSA 09 | ATCC 29213 / MRSA, strain MRSA 15 | ATCC 29213 / MRSA, strain MRSA 17 | ATCC 29213 / MRSA, strain MRSA 24 | ATCC 29213 / MRSA, strain MRSA 49 | ATCC 29213 / MRSA, strain MRSA 54 | ATCC 29213 / MRSA, strain MRSA 61 | ATCC 29213 / MRSA, strain MRSA 62 | ATCC 29213 / MRSA, strain MRSA 74 | ATCC 29213 / MRSA, strain MRSA 77 | ATCC 29213 / MRSA, strain MRSA 82 | ATCC 29213 / MRSA, strain MRSA 84 | ATCC 29213 / MRSA, strain MRSA 86 | ATCC 29213 / MRSA, strain MRSA 93 | ATCC 29213 / MRSA, strain MRSA 94 | ATCC 29213 / MRSA, strain MRSA 95 | ATCC 29213 / MRSA, strain MRSA 102 | ATCC 29213 / MRSA, strain MRSA 107 | ATCC 29213 / NEWMAN, strain Newman
1 µg/mL: ATCC29213, strain 9-1862936 | ATCC29213, strain 9-2625962 | ATCC29213, strain 9-2642158 | ATCC29213, strain 9-2955245 | ATCC29213, strain 9-26422166 | ATCC29213, strain 000040C | ATCC29213, strain 000041C | ATCC29213, strain 000274T | ATCC29213, strain 114660U | ATCC29213, strain 115242C | ATCC29213, strain 115268C | ATCC29213, strain 115273C | ATCC29213, strain 115295C | ATCC29213, strain 115303C | ATCC29213, strain 115370U | ATCC29213, strain 115427C | ATCC29213, strain 115445C | ATCC29213, strain 115561C | ATCC29213, strain 115691T | ATCC29213, strain 115740E | ATCC29213, strain 115810E | ATCC29213, strain 115903T | ATCC29213, strain 116122T | ATCC29213, strain ATCC 29213 | ATCC29213, strain E5-1029252 | ATCC29213, strain E5-1029558 | ATCC29213, strain E5-1030440 | ATCC29213, strain E5-1030472 | ATCC29213, strain E5-1030482 | ATCC29213, strain E5-1033076 (first line, r202) | ATCC29213, strain E5-1033076 (second line, r203) | ATCC29213, strain E5-1033088 | ATCC29213, strain E5-1033091 | ATCC29213, strain E5-1035277 | ATCC29213, strain E5-1035284 | ATCC29213, strain E5-1035775 | ATCC29213, strain E5-1035779 | ATCC29213, strain E5-1037958 | ATCC29213, strain E5-1037971 | ATCC29213, strain E5-1038279 | ATCC29213, strain E5-1038286 | ATCC29213, strain E5-1038294 | ATCC29213, strain E5-1039684 | ATCC29213, strain E5-1039697 | ATCC29213, strain E5-1041979 | ATCC29213, strain E5-1041980 | ATCC29213, strain E5-1041987 | ATCC29213, strain E5-1043184 | ATCC29213, strain E5-1043668 | ATCC29213, strain E5-1045179 | ATCC29213, strain E5-1046019 | ATCC29213, strain E5-1046020 | ATCC29213, strain E5-1046039 | ATCC29213, strain E5-1046070 | ATCC29213, strain E5-1046074 | ATCC29213, strain E5-1046096 | ATCC29213, strain E5-1046296 | ATCC29213, strain E5-1046297 | ATCC29213, strain E5-1046298 | ATCC29213, strain E5-1047585 | ATCC29213, strain E5-1047606 | ATCC29213, strain E5-1047924 | ATCC29213, strain E5-1048428 | ATCC29213, strain E5-1048654 | ATCC29213, strain EEFIC 01 | ATCC29213, strain EEFIC 02 | ATCC29213, strain K000772 | ATCC29213, strain K000796 | ATCC29213, strain K000863 | ATCC29213, strain K000864 | ATCC29213, strain K000866 | ATCC29213, strain R000020 | ATCC29213, strain R000024 | ATCC29213, strain U115579 | ATCC 29213 / MRSA, strain MRSA 01 | ATCC 29213 / MRSA, strain MRSA 03 | ATCC 29213 / MRSA, strain MRSA 05 | ATCC 29213 / MRSA, strain MRSA 07 | ATCC 29213 / MRSA, strain MRSA 08 | ATCC 29213 / MRSA, strain MRSA 10 | ATCC 29213 / MRSA, strain MRSA 11 | ATCC 29213 / MRSA, strain MRSA 13 | ATCC 29213 / MRSA, strain MRSA 14 | ATCC 29213 / MRSA, strain MRSA 16 | ATCC 29213 / MRSA, strain MRSA 18 | ATCC 29213 / MRSA, strain MRSA 19 | ATCC 29213 / MRSA, strain MRSA 20 | ATCC 29213 / MRSA, strain MRSA 21 | ATCC 29213 / MRSA, strain MRSA 23 | ATCC 29213 / MRSA, strain MRSA 25 | ATCC 29213 / MRSA, strain MRSA 26 | ATCC 29213 / MRSA, strain MRSA 27 | ATCC 29213 / MRSA, strain MRSA 27b | ATCC 29213 / MRSA, strain MRSA 28 | ATCC 29213 / MRSA, strain MRSA 29 | ATCC 29213 / MRSA, strain MRSA 30 | ATCC 29213 / MRSA, strain MRSA 31 | ATCC 29213 / MRSA, strain MRSA 32 | ATCC 29213 / MRSA, strain MRSA 33 | ATCC 29213 / MRSA, strain MRSA 34 | ATCC 29213 / MRSA, strain MRSA 35 | ATCC 29213 / MRSA, strain MRSA 36 | ATCC 29213 / MRSA, strain MRSA 37 | ATCC 29213 / MRSA, strain MRSA 38 | ATCC 29213 / MRSA, strain MRSA 39 | ATCC 29213 / MRSA, strain MRSA 40 | ATCC 29213 / MRSA, strain MRSA 41 | ATCC 29213 / MRSA, strain MRSA 42 | ATCC 29213 / MRSA, strain MRSA 43 | ATCC 29213 / MRSA, strain MRSA 44 | ATCC 29213 / MRSA, strain MRSA 45 | ATCC 29213 / MRSA, strain MRSA 46 | ATCC 29213 / MRSA, strain MRSA 50 | ATCC 29213 / MRSA, strain MRSA 51 | ATCC 29213 / MRSA, strain MRSA 52 | ATCC 29213 / MRSA, strain MRSA 53 | ATCC 29213 / MRSA, strain MRSA 56 | ATCC 29213 / MRSA, strain MRSA 57 | ATCC 29213 / MRSA, strain MRSA 58 | ATCC 29213 / MRSA, strain MRSA 59 | ATCC 29213 / MRSA, strain MRSA 63 | ATCC 29213 / MRSA, strain MRSA 64 | ATCC 29213 / MRSA, strain MRSA 65 | ATCC 29213 / MRSA, strain MRSA 66 | ATCC 29213 / MRSA, strain MRSA 67 | ATCC 29213 / MRSA, strain MRSA 68 | ATCC 29213 / MRSA, strain MRSA 69 | ATCC 29213 / MRSA, strain MRSA 70 | ATCC 29213 / MRSA, strain MRSA 71 | ATCC 29213 / MRSA, strain MRSA 72 | ATCC 29213 / MRSA, strain MRSA 73 | ATCC 29213 / MRSA, strain MRSA 75 | ATCC 29213 / MRSA, strain MRSA 76 | ATCC 29213 / MRSA, strain MRSA 78 | ATCC 29213 / MRSA, strain MRSA 79 | ATCC 29213 / MRSA, strain MRSA 80 | ATCC 29213 / MRSA, strain MRSA 81 | ATCC 29213 / MRSA, strain MRSA 83 | ATCC 29213 / MRSA, strain MRSA 85 | ATCC 29213 / MRSA, strain MRSA 87 | ATCC 29213 / MRSA, strain MRSA 88 | ATCC 29213 / MRSA, strain MRSA 89 | ATCC 29213 / MRSA, strain MRSA 90 | ATCC 29213 / MRSA, strain MRSA 91 | ATCC 29213 / MRSA, strain MRSA 92 | ATCC 29213 / MRSA, strain MRSA 96 | ATCC 29213 / MRSA, strain MRSA 97 | ATCC 29213 / MRSA, strain MRSA 98 | ATCC 29213 / MRSA, strain MRSA 99 | ATCC 29213 / MRSA, strain MRSA 100 | ATCC 29213 / MRSA, strain MRSA 101 | ATCC 29213 / MRSA, strain MRSA 103 | ATCC 29213 / MRSA, strain MRSA 104 | ATCC 29213 / MRSA, strain MRSA 105 | ATCC 29213 / MRSA, strain MRSA 106 | ATCC 29213 / MRSA, strain MRSA 108 | ATCC 29213 / MRSA, strain MRSA 109 | ATCC 29213 / MRSA, strain MRSA 110 | ATCC 29213 / MRSA, strain MRSA 111 | ATCC 29213 / MRSA, strain MRSA 112 | ATCC 29213 / MRSA, strain MRSA 113 | ATCC 29213 / MSSA, strain MSSA 01 | ATCC 29213 / MSSA, strain MSSA 02
0.5 µg/mL: ATCC 29213 / MRSA, strain MRSA 22 | ATCC 29213 / MRSA, strain MRSA 47 | ATCC 29213 / MRSA, strain MRSA 48 | ATCC 29213 / MRSA, strain MRSA 55 | ATCC 29213 / MRSA, strain MRSA 60
